This note sets out measurements from patent US20240208895A1, “BRANCHED-CHAIN AMINO ACID DERIVATIVES TO TREAT DISEASE” (INTRABIO LTD., priority 2021, published 2024).

Test [1] addresses T1, OAT3 (SLC22A8) (Homo sapiens, UniProt Q8TCC7).
T1 construct: host or cells: HEK-293
T1 sequence (Q8TCC7 1-542): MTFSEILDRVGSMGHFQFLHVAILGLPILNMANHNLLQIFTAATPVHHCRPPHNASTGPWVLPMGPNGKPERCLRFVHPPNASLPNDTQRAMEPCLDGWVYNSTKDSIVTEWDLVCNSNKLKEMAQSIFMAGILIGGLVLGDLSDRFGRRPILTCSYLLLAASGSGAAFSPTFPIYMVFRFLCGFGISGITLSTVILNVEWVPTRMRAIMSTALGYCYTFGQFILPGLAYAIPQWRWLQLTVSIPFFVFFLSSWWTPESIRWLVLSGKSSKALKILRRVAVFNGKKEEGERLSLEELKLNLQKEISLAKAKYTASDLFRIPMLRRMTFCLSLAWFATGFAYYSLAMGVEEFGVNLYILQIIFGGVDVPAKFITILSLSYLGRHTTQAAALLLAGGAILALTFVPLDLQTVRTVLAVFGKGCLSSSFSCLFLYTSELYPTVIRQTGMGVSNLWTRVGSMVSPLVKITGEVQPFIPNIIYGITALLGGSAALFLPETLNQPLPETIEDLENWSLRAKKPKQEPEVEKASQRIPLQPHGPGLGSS
Put plainly: OAT3 transporter-mediated cellular uptake (substrate test). The class given is cell-based. The settings on record: uptake 5 min, 37° C. On the procedure:
DMSO (0.5%) was the solvent control (SC) and the known inhibitor diclofenac (100 μM) was the positive control (PC). Data were fit to either the Michalis-Menten equation for uptake or the Hill equation for inhibition using the solvent control to define the top and the positive control inhibitor to define the bottom. Symbols represent the mean±SEM, n=3.
Human OAT1 (SLC22A6) and OAT3 (SLC22A8) overexpressing HEK-293 cells and control cells without transfected transporter (Corning® TransportoCells™) are plated to 24-well plates and cellular uptake of 10 to 100 μg/mL of a Compound of the Disclosure is measured in the absence and presence of transporter inhibitors. Uptake of a Compound of the Disclosure into control cells is measured only without chemical inhibitors. […] Cells are grown in DMEM (Gibco 4196, high glucose, without sodium pyruvate) supplemented with MEM non-essential amino acids and 10% fetal bovine serum. Cells are re-fed with fresh medium after attachment (4-6 hours post-seeding). Cell are plated at a density of 4×10^5/well in 24-well plates coated with poly-D-lysine. Transporter assays are conducted in 400 μL of HBSS supplemented with 10 mM Hepes, pH 7.4 […]
Enzyme kinetic data for uptake and metabolism of a Compound of the Disclosure is analysed by fitting the Michaelis-Menten equation to the data. […]

The target in test [2] is T2, monocarboxylate transporter (MCT1) (Homo sapiens, UniProt P53985).
T2 sequence (P53985 1-500): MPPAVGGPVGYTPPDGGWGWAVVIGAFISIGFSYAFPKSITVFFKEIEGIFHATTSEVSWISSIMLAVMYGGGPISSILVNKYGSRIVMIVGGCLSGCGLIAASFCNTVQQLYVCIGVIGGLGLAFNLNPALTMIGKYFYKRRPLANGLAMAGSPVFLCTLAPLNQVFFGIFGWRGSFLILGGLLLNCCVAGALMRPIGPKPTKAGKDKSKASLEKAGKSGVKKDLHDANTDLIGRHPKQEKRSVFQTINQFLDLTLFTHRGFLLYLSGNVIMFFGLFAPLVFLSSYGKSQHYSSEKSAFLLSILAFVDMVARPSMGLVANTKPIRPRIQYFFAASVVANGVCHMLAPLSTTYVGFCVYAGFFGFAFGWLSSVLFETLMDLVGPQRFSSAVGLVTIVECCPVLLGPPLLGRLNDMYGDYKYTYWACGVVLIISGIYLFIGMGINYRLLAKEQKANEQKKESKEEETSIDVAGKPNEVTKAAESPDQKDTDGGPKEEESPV
Description: Inhibition of MCT1 uptake of known substrate 2-thiophene glyoxylate. More on the design: expressed in transfected cells. The class given is cell-based. As for the experimental part: FIG. 4(c) is a line graph showing concentration-inhibition curves for the inhibition of uptake of the known substrate 2-thiophene glyoxylate (500 μM) for MCT1. DMSO (0.5%) was the solvent control (SC) and the known inhibitor phloretin (500 μM) was the positive control (PC).
FIG. 4(d) is a line graph showing concentration-inhibition curves for the inhibition of uptake of the known substrate 2-thiophene glyoxylate (500 μM) for MCT1. DMSO (0.5%) was the solvent control (SC) and the known inhibitor phloretin (500 μM) was the positive control (PC).
The known probe substrates used as positive controls are 3 μM chlorothiazide for OAT1, 2 μM estrone-3-sulfate for OAT3, 10 μM gabapentin for LAT1, 50 μM Gly-Sar for PepT1, 500 μM thiophene-2-glyoxylic acid for MCT1.
The IC50 value for the test item is determined by fitting the Hill equation in the following form:
where A % is the percent activity remaining (the mean cellular uptake observed in the solvent control sample set to 100% and the mean cellular uptake observed in the presence of the positive control inhibitor set to 0%), Top and Bottom are the upper and lower plateau of A %. [I] is the inhibitor concentration and IC50 is the inhibitor concentration where the remaining activity is at the midpoint between the Top and Bottom.

As for `CC(=O)N[C@@H](CC(C)C)C(=O)O` [N-acetyl-L-leucine], the “substrate of OAT3 (uptake)” value in test [1] is listed as “substrate”. Further, the inhibitory constant (Ki) in test [2] (assuming competitive inhibition, read-out: affinity (Ki) for MCT1, Cheng-Prusoff equation) was 4.3 mM. The molecule further yielded an IC50 in test [2] (probe substrate 2-thiophene glyoxylate 500 μM) of 15 mM.
